Measured values as given in US6376666B1 (Nauchno-Issledovatelsky Institut Farmakologii Rossiiskoi …, priority 1994, dated 2002).

How the values were obtained:
Type in all cases: in vivo
C57B1/6 mice = assay: open-field test, C57B1/6 mice (active type of emotional-stress reaction); conditions: i.p., doses that activate Balb/c mice
Source text: (§1) The main point of this approach consists in comparative analysis of the behavioural effects of tested compounds in two inbred strains of mice Balb/c and C57B1/6 with different hereditary types of emotional-stress reactions (ESR). The anxiolytic effect was estimated as the activation of the locomotor activity of animals with “passive” type of ESR (Balb/c mice). The main index describing the sedative properties of tested drugs was the inhibition of the locomotor activity of mice with “active” type of ESR (C57B1/6 strain). The anxioselectivity was evaluated according to coincidence of doses range which activated or inhibited the behavior of mice of different strains. Earlier this approach has been successfully used for estimation of anxioselective activity of such known drugs as phenazepam [Seredenin S. B. et al., Bull.Exp.Biol.Med., 1979, v.88, N7, p.38; Seredenin S. B. et al., Ann.Inst.Super.Sanita, 1990, v.26, N1, p.81-88], mexidol [Seredenin S. B. et al., Khimiko-Farmatsevt.Zhurnal, 1987, N2, p.134; Vironina T. A., Seredenin S. B., Ann.Inst.Super.Sanita, 1988, v.24, N3, p.461-466] and gidazepam [Seredenin S. B. et al., in: “Gidazepam” Kiev, Naukova Dumka, 1992, p.92; Seredenin S. B., Blednov Yu. A., Phys.Chem.Biol.Med., 1993, v.1, N1, p.53-60].
(§2) Male C57B1/6 and Balb/c mice (“Stolbovaya” animal farm), weighing 20-22 g were used. The animals were housed in a separate animal room in groups of ten and maintained on 12 h light-dark cycle (light from 8.00 till 20.00) with free access to standard food and water during two weeks before experiment. Testing was performed between 9.00 and 13.00. Every used compound was administered intraperitoneally in water solutions 30 min before testing (0,1 ml solution per 10 g of weight). The “open-field” apparatus consisted of cylinder closed from one end, illuminated by four 75 W lamps fixed to the walls 100 cm above the floor. The “open-field” apparatus was 100 cm in diameter and white-painted; the floor was marked with 3 black circles and some radial lines divided the floor into 16 peripheral and 8 central segments. 30 min after injection each animal was placed in the same peripheral square on the floor for 3 min of testing after 1 min exposure in the dark chamber. The following behavior variables were recorded: 1) the number of crossings in the peripheral area (peripheral activity); 2) the number of crossings in the central segments (central activity); 3) the number of rearings (vertical activity); 4) the emotionality was measured as the number of defecations during the test. The sum of all types of locomotor activity was marked as total activity. The t-Student test was used for statistical analysis.

Balb/c mice = assay: open-field test, Balb/c mice (passive type of emotional-stress reaction); parameters: key to Total activity: sum of all locomotor activity counts (crossings + rearings) in 3 min; conditions: for effect on the behavior (locomotor activity) of Balb/c mice in open-field test, in words: i.p., screening
Source text: as §1, §2

cats = assay: hemodynamics and activity of intact heart in cats under anesthesia; conditions: cats i.v.; for effect on heart rate, in words: doses of 0,5 mg/kg-2,0 mg/kg
Protocol: The effects of compounds on the hemodynamics and activity of intact heart were studied in cats under anesthesia. The experiments were carried out under conditions of open chest. The phase curve of aortic blood flow was the main index of cardiac activity. The compounds were administered i.v. in physiological solution. The t-Student' test was used to estimate the statistical significance.

[1] = 0.1 mg/kg i.p., M ± mx, 0.1 mg/kg
[2] = 1.0 mg/kg i.p., M ± mx, 1 mg/kg
[3] = 10.0 mg/kg i.p., M ± mx, 10 mg/kg

Compound: Cc1cc2nc(SCCN3CCCC3)[nH]c2cc1C [XIII, 2-[2-(Pyrrolidino)ethylthio]-5,6-dimethylbenzimidazole]
- effect on locomotor activity of C57B1/6 mice in open-field test, in words (C57B1/6 mice): without any changes in locomotor activity
- Central activity (crossings) (Balb/c mice; 0.5 mg/kg i.p., M ± mx): 4.3 ± 4.1
- Number of defecations (Balb/c mice; 0.5 mg/kg i.p., M ± mx): 2.9 ± 0.6
- Peripheral activity (crossings) (Balb/c mice; 0.5 mg/kg i.p., M ± mx): 32.0 ± 5.7
- Total activity (Balb/c mice; 0.5 mg/kg i.p., M ± mx): 36.3 ± 9.8
- Central activity (crossings) (Balb/c mice; 1.0 mg/kg i.p., M ± mx): 0.8 ± 0.5
- Number of defecations (Balb/c mice; 1.0 mg/kg i.p., M ± mx): 1.0 ± 0.5
- Peripheral activity (crossings) (Balb/c mice; 1.0 mg/kg i.p., M ± mx): 80.0 ± 11.2
- Total activity (Balb/c mice; 1.0 mg/kg i.p., M ± mx): 80.8 ± 11.7
- Number of defecations (Balb/c mice; 5.0 mg/kg i.p., M ± mx): 1.6 ± 0.7
- Peripheral activity (crossings) (Balb/c mice; 5.0 mg/kg i.p., M ± mx): 69.0 ± 13.2
- Total activity (Balb/c mice; 5.0 mg/kg i.p., M ± mx): 69.0 ± 13.2
- Central activity (crossings) (Balb/c mice; 50.0 mg/kg i.p., M ± mx): 0.7 ± 0.5
- Peripheral activity (crossings) (Balb/c mice; 50.0 mg/kg i.p., M ± mx): 27.7 ± 6.2
- Total activity (Balb/c mice; 50.0 mg/kg i.p., M ± mx): 28.4 ± 6.7
- effect on the behavior (locomotor activity) of Balb/c mice in open-field test, in words (Balb/c mice): able to activate the behavior of Balb/c mice

Compound: CCN(CC)CCSc1nc2ccccc2n1Cc1ccccc1 [XIX, 1-Benzyl-2-[2-(diethylarnino)ethylthio]benzimidazole]
- effect on parameters of hemodynamics and heart activity, in words (cats): no effects on the parameters of hemodynamics and heart activity
- effect on the behavior (locomotor activity) of Balb/c mice in open-field test, in words (Balb/c mice): inhibited the locomotor activity

Compound: Cc1cc2nc(SCCCN(C)C)[nH]c2cc1C [XVI, 2-[3-(Dimethylamino)propylthio]-5,6-dimethylbenzimidazole]
- effect on parameters of hemodynamics and heart activity, in words (cats): no effects on the parameters of hemodynamics and heart activity
- effect on the behavior (locomotor activity) of Balb/c mice in open-field test, in words (Balb/c mice): inhibited the locomotor activity

Compound: CCN(CC)CCSc1nc2ccccc2n1CCc1ccccc1 [XXI, 1-(β-Phenylethyl)-2-[2-(diethylamino)ethylthio]benzimidazole]
- effect on heart rate, in words (cats): small and short bradycardia
- effect on the behavior (locomotor activity) of Balb/c mice in open-field test, in words (Balb/c mice): neither activatory nor inhibitory effects

Compound: CCOc1ccc2nc(SCCN3CCCCC3)[nH]c2c1 [XI]
- effect on parameters of hemodynamics and heart activity, in words (cats): no effects on the parameters of hemodynamics and heart activity
- effect on the behavior (locomotor activity) of Balb/c mice in open-field test, in words (Balb/c mice): neither activatory nor inhibitory effects

Compound: CCOc1ccc2nc(SCCN(CC)CC)[nH]c2c1 [VI, 2-2-[(Diethylamino)ethylthio]-5-ethoxybenzo-imidazole]
- effect on heart rate, in words (cats): small and short bradycardia
- Peripheral activity (crossings) (Balb/c mice; [1]): 3.0 ± 1.8
- Total activity (Balb/c mice; [1]): 3.0 ± 1.8
- Vertical activity (rearings) (Balb/c mice; 1.0 mg/kg i.p., M ± mx): 0.4 ± 0.4
- Peripheral activity (crossings) (Balb/c mice; [2]): 3.3 ± 1.3
- Total activity (Balb/c mice; [2]): 3.7 ± 1.7
- Peripheral activity (crossings) (Balb/c mice; [3]): 3.1 ± 0.8
- Total activity (Balb/c mice; [3]): 3.1 ± 0.8
- effect on the behavior (locomotor activity) of Balb/c mice in open-field test, in words (Balb/c mice): inhibited the locomotor activity

Compound: c1ccc(CCn2c(SCCN3CCOCC3)nc3ccccc32)cc1 [XXII]
- effect on parameters of hemodynamics and heart activity, in words (cats): no effects on the parameters of hemodynamics and heart activity
- effect on the behavior (locomotor activity) of Balb/c mice in open-field test, in words (Balb/c mice): neither activatory nor inhibitory effects

Compound: Cc1cc2nc(SCCCN3CCN(C)CC3)[nH]c2cc1C [XVII, 2-[3-(4-Methylpyperazino)propylthio]-5,6-dimethylbenzimidazole]
- effect on heart rate, in words (cats): small and short bradycardia
- Central activity (crossings) (Balb/c mice; 0.1 mg/kg i.p., M ± mx): 0.5 ± 0.5
- Number of defecations (Balb/c mice; 0.1 mg/kg i.p., M ± mx): 2.0 ± 0.8
- Peripheral activity (crossings) (Balb/c mice; 0.1 mg/kg i.p., M ± mx): 4.0 ± 1.0
- Total activity (Balb/c mice; 0.1 mg/kg i.p., M ± mx): 4.5 ± 1.5
- Number of defecations (Balb/c mice; 1.0 mg/kg i.p., M ± mx): 0.1 ± 0.1
- Peripheral activity (crossings) (Balb/c mice; 1.0 mg/kg i.p., M ± mx): 7.7 ± 1.9
- effect on the behavior (locomotor activity) of Balb/c mice in open-field test, in words (Balb/c mice): inhibited the locomotor activity

Compound: CN(C)CCSc1nc2ccccc2n1Cc1ccccc1 [XVIII, 1-Benzyl-2-[2-(dimethylamino)ethylthuo]benzimidazole]
- effect on parameters of hemodynamics and heart activity, in words (cats): no effects on the parameters of hemodynamics and heart activity
